Structures can show the parent of a compound that is named as a salt.
Target: T1, HCV polymerase (Hepatitis C virus genotype 1b, UniProt P26663)
T1 construct: a region encoding NS5B (591 amino acids; J Virol 1991 Mar, 65(3), 1105-13) was amplified by PCR; 6 His (N); made in house; host or cells: Escherichia coli
Assay: biochemical
Conditions: read-out: HCV polymerase inhibitory activity IC50

T1 sequence (P26663 2420-3010): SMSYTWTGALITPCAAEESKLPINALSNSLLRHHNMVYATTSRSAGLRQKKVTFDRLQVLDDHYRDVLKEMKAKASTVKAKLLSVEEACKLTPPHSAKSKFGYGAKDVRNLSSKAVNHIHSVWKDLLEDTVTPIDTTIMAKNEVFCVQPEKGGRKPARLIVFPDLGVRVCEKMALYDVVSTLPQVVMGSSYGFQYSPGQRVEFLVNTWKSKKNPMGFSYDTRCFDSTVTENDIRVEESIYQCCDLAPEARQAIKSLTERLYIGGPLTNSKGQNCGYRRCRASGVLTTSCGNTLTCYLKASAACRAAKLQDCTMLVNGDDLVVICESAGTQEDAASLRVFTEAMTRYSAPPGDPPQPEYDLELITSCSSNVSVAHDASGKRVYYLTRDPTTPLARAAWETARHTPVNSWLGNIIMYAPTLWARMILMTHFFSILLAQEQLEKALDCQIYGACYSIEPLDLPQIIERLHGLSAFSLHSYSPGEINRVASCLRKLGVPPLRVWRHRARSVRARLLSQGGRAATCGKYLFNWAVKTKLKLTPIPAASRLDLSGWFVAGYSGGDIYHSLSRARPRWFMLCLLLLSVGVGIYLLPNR

Row | SMILES | IC50 [nM]
1 | CC1CCN(C(=O)c2ccc(-c3ccc(Cl)cc3)c(COc3ccc(-c4nc5cc(C(=O)O)ccc5n4C4CCCCC4)cc3)c2)CC1 [Example 341, 2-{4-[2-(4-chlorophenyl)-5-(4-methylpiperidin-1-ylcarbonyl)benzyloxy]phenyl}-1-cyclohexylbenzimidazole-5-carboxylic acid hydrochloride] | 25
2 | Cc1ccc(C(Oc2ccc(-c3nc4cc(C(=O)O)ccc4n3C3CCCCC3)cc2)c2ccc(C)cc2)cc1 [Example 133, 2-{4-[bis(4-methylphenyl)methoxy]phenyl}-1-cyclohexylbenzimidazole-5-carboxylic acid] | 120
3 | O=C(O)c1ccc2c(c1)nc(-c1cc(OCc3ccccc3)no1)n2C1CCCCC1 [Example 99, 2-(3-benzyloxy-5-isoxazolyl)-1-cyclohexylbenzimidazole-5-carboxylic acid] | 530
4 | CC(C)NC(=O)c1ccc(-c2ccc(Cl)cc2)c(COc2ccc(-c3nc4cc(S(N)(=O)=O)ccc4n3C3CCCCC3)c(F)c2)c1 [Example 447, 3-{[4-(5-aminosulfonyl-1-cyclohexylbenzimidazol-2-yl)-3-fluorophenoxy]methyl}-4-(4-chlorophenyl)-N-isopropylbenzamide] | 120
5 | O=C(O)c1ccc(-c2ccc(Cl)cc2COc2ccc(-c3nc4cc(-c5nnn[nH]5)ccc4n3C3CCCCC3)c(F)c2)cc1 [Example 435, 2-{4-[2-(4-carboxyphenyl)-5-chlorobenzyloxy]-2-fluorophenyl}-1-cyclohexyl-5-tetrazol-5-ylbenzimidazole hydrochloride] | 12
6 | O=C(O)c1ccc2c(c1)nc(-c1ccc(OCc3ccc(-c4nnn[nH]4)cc3-c3ccc(Cl)cc3)cc1)n2C1CCCCC1 [Example 237, 2-{4-[2-(4-chlorophenyl)-4-(5-tetrazolyl)benzyloxy]phenyl}-1-cyclohexylbenzimidazole-5-carboxylic acid] | 15
7 | CCS(=O)(=O)N(C)c1ccc(-c2ccc(Cl)cc2)c(COc2ccc(-c3nc4cc(C(=O)O)ccc4n3C3CCCCC3)c(F)c2)c1 [Example 464, 2-[4-{2-(4-chlorophenyl)-5-[N-(ethylsulfonyl)-N-methylamino]-benzyloxy}-2-fluorophenyl]-1-cyclohexylbenzimidazole-5-carboxylic acid hydrochloride] | 30
8 | O=C(O)c1ccc2c(c1)nc(-c1ccc(Oc3cccc(C(F)(F)F)c3)cc1)n2C1CCCCC1 [Example 230, 1-cyclohexyl-2-[4-(3-trifluoromethylphenoxy)phenyl]-benzimidazole-5-carboxylic acid] | 170
9 | O=C(O)c1ccc(-c2ccc(Cl)cc2)c(COc2ccc(-c3nc4cc(C(=O)O)ccc4n3C3CCCCC3)c(F)c2)c1 [Example 305, 2-{4-[5-carboxy-2-(4-chlorophenyl)benzyloxy]-2-fluorophenyl}-1-cyclohexylbenzimidazole-5-carboxylic acid] | 10
10 | CN(C)C(=O)c1ccc(N2CCC[C@H]2COc2ccc(-c3nc4cc(C(=O)O)ccc4n3C3CCCCC3)cc2)cc1 [Example 228, 2-{4-[{(2S)-1-(4-dimethylcarbamoylphenyl)-2-pyrrolidinyl}-methoxy]phenyl}-1-cyclohexylbenzimidazole-5-carboxylic acid] | 180
11 | COc1ccc(CCOc2ccc(-c3nc4cc(C(=O)O)ccc4n3C3CCCCC3)cc2)cc1 [Example 119, 1-cyclohexyl-2-{4-[2-(4-methoxyphenyl)ethoxy]phenyl}-benzimidazole-5-carboxylic acid] | 130
12 | O=C(O)c1ccc2c(c1)nc(-c1ccc(OCc3cc(Cl)ccc3-c3ccc(Cl)cc3)cc1F)n2C1CCCCC1 [Example 174, 2-{4-[3-chloro-6-(4-chlorophenyl)benzyloxy]-2-fluorophenyl}-1-cyclohexylbenzimidazole-5-carboxylic acid] | 30
13 | CC(CO)NC(=O)c1ccc(-c2ccc(Cl)cc2)c(COc2ccc(-c3nc4cc(C(=O)O)ccc4n3C3CCCCC3)c(F)c2)c1 (centres unmarked) [Example 381, 2-{4-[2-(4-chlorophenyl)-5-{(1-hydroxypropan-2-yl)carbamoyl}-benzyloxy]-2-fluorophenyl}-1-cyclohexylbenzimidazole-5-carboxylic acid hydrochloride] | 11
14 | O=C(O)c1ccc2c(c1)nc(-c1ccc(Oc3cccc(-c4ccccc4)c3)cc1)n2C1CCCCC1 [Example 154, 2-[4-(3-biphenylyloxy)phenyl]-1-cyclohexylbenzimidazole-5-carboxylic acid] | 76
15 | CC(C)NC(=O)c1ccc(COc2ccc(-c3nc4cc(C(=O)O)ccc4n3C3CCCCC3)cc2)c(-c2ccc(Cl)cc2)c1 [Example 350, 2-{4-[2-(4-chlorophenyl)-4-(isopropylcarbamoyl)benzyloxy]phenyl}-1-cyclohexylbenzimidazole-5-carboxylic acid hydrochloride] | 20
16 | O=C(O)c1ccc2c(c1)nc(-c1ccc(Oc3cccc(OC4CCOCC4)c3)cc1)n2C1CCCCC1 [Example 209, 1-cyclohexyl-2-{4-[3-(4-tetrahydropyranyloxy)phenoxy]phenyl}-benzimidazole-5-carboxylic acid] | 120

Row | SMILES | IC50 [nM]
17 | O=C(O)c1ccc2c(c1)nc(-c1ccc(OCc3cc(Cl)ccc3-c3cccnc3)cc1)n2C1CCCCC1 [Example 170, 2-{4-[3-chloro-6-(3-pyridyl)benzyloxy]phenyl}-1-cyclohexylbenzimidazole-5-carboxylic acid] | 48
18 | CCN(c1ccc(-c2ccc(Cl)cc2)c(COc2ccc(-c3nc4cc(C(=O)O)ccc4n3C3CCCCC3)c(F)c2)c1)S(=O)(=O)CC [Example 465, 2-[4-{2-(4-chlorophenyl)-5-[N-ethyl-N-(ethylsulfonyl)amino]-benzyloxy}-2-fluorophenyl]-1-cyclohexylbenzimidazole-5-carboxylic acid hydrochloride] | 33
19 | CC(C)(C)OC(=O)N1CCC(COc2ccccc2Oc2ccc(-c3nc4cc(C(=O)O)ccc4n3C3CCCCC3)cc2)CC1 [Example 155, 2-{4-[2-{(1-tert-butoxycarbonyl-4-piperidyl)methoxy}phenoxy]-phenyl}-1-cyclohexylbenzimidazole-5-carboxylic acid] | 530
20 | C[C@@H]1CCC[C@H](C)N1C(=O)c1ccc(-c2ccc(Cl)cc2)c(COc2ccc(-c3nc4cc(C(=O)O)ccc4n3C3CCCCC3)c(F)c2)c1 [Example 387, 2-{4-[2-(4-chlorophenyl)-5-(2,6-dimethylpiperidin-1-ylcarbonyl)-benzyloxy]-2-fluorophenyl}-1-cyclohexylbenzimidazole-5-carboxylic acid hydrochloride] | 25
21 | CN(C)C(=O)c1ccc(C(Oc2ccc(-c3nc4cc(C(=O)O)ccc4n3C3CCCCC3)c(F)c2)c2ccc(C(=O)N(C)C)cc2)cc1 [Example 301] | 17
22 | CSc1ccc(-c2ccc(Cl)cc2)c(COc2ccc(-c3nc4cc(C(=O)O)ccc4n3C3CCCCC3)cc2)c1 [Example 297, 2-{4-[2-(4-chlorophenyl)-5-methylthiobenzyloxy]phenyl}-1-cyclohexylbenzimidazole-5-carboxylic acid] | 22
23 | Cc1nc(-c2ccc(S(C)(=O)=O)cc2)c(COc2ccc(-c3nc4cc(C(=O)O)ccc4n3C3CCCCC3)cc2)s1 [Example 217, 1-cyclohexyl-2-{4-[{4-(4-methanesulfonylphenyl)-2-methyl-5-thiazolyl}methoxy]phenyl}benzimidazole-5-carboxylic acid] | 58
24 | CN(c1ccc(-c2ccc(Cl)cc2)c(COc2ccc(-c3nc4cc(C(=O)O)ccc4n3C3CCCCC3)c(F)c2)c1)S(C)(=O)=O [Example 456, 2-[4-{2-(4-chlorophenyl)-5-[N-methyl-N-(methylsulfonyl)amino]benzyloxy}-2-fluorophenyl]-1-cyclohexylbenzimidazole-5-carboxylic acid hydrochloride] | 17
25 | O=C(O)c1ccc2c(c1)nc(-c1ccc(OCc3ccccc3-c3ccccc3)cc1)n2C1CCCCC1 [Example 88, 2-[4-(2-biphenylylmethoxy)phenyl]-1-cyclohexylbenzimidazole-5-carboxylic acid] | 92
26 | COc1ccc(Br)c(COc2ccc(-c3nc4cc(C(=O)O)ccc4n3C3CCCCC3)cc2)c1 [Example 180, 2-[4-(2-bromo-5-methoxybenzyloxy)phenyl]-1-cyclohexylbenzimidazole-5-carboxylic acid] | 110
27 | O=C(O)c1ccc2c(c1)nc(-c1ccc(OCc3cc(NC4=NCCO4)ccc3-c3ccc(Cl)cc3)cc1F)n2C1CCCCC1 [Example 425, 2-{4-[2-(4-chlorophenyl)-5-(2-oxazolin-2-ylamino)benzyloxy]-2-fluorophenyl}-1-cyclohexylbenzimidazole-5-carboxylic acid dihydrochloride] | 26
28 | O=C(O)c1ccc2c(c1)nc(-c1ccc(OC(C(=O)O)(c3ccccc3)c3ccccc3)cc1)n2C1CCCCC1 [Example 181, 2-[4-(carboxydiphenylmethoxy)phenyl]-1-cyclohexylbenzimidazole-5-carboxylic acid] | 710
29 | Cc1nc(-c2ccc(-c3ccc(Cl)cc3)c(COc3ccc(-c4nc5cc(C(=O)O)ccc5n4C4CCCCC4)cc3)c2)cs1 [Example 347, 2-{4-[2-(4-chlorophenyl)-5-(2-methylthiazol-4-yl)benzyloxy]-phenyl}-1-cyclohexylbenzimidazole-5-carboxylic acid] | 22
30 | O=C(O)c1ccc2c(c1)nc(-c1ccc(Oc3cccc(OCC4CCNCC4)c3)cc1)n2C1CCCCC1 [Example 161, 1-cyclohexyl-2-{4-[3-(4-piperidylmethoxy)phenoxy]phenyl}-benzimidazole-5-carboxylic acid hydrochloride] | 62
31 | CC(C)CC(=O)c1ccc(-c2ccc(Cl)cc2)c(COc2ccc(-c3nc4cc(C(=O)O)ccc4n3C3CCCCC3)cc2)c1 [Example 346, 2-{4-[2-(4-chlorophenyl)-5-(isobutylcarbonyl)benzyloxy]phenyl}-1-cyclohexylbenzimidazole-5-carboxylic acid] | 25
32 | CN(C)C(=O)COc1ccccc1Oc1ccc(-c2nc3cc(C(=O)O)ccc3n2C2CCCCC2)cc1 [Example 191, 1-cyclohexyl-2-{4-[2-(dimethylcarbamoylmethoxy)phenoxy]-phenyl}benzimidazole-5-carboxylic acid] | 430
